Where “and” joins values, the source holds several entries; their conditions need not be identical. Equal values may be shown once. Toxic doses and inconclusive results are not listed. Rule as the data show it: active = T/C of 150% or more; inactive = T/C below 125%.
Test system: L1210 leukemia ip in BDF1 mice, survival T/C
Assay: NCI In Vivo Anticancer Drug Screen. Data for tumor model L1210 Leukemia (intraperitoneal) in B6D2F1 (BDF1) mice
Conditions: endpoint: mean survival time, higher = longer survival
Method in brief: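 Tumor was transplanted into mice, which were then dosed with test compound or vehicle alone. Survival was recorded for each group, and the treated figure was expressed relative to the control figure.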

Measured: T/C

CCOC(=O)c1cnc(SC)nc1NC(C(=O)OCC)C(=O)OCC
inactive: dose: 100.0 mg/kg/injection, schedule: Q04DX003 (ip), vehicle: Klucel (hydroxypropylcellulose) (HPC) 93 % of control | dose: 200.0 mg/kg/injection, schedule: Q04DX003 (ip), vehicle: Klucel (hydroxypropylcellulose) (HPC) 100 % of control | dose: 400.0 mg/kg/injection, schedule: Q04DX003 (ip), vehicle: Klucel (hydroxypropylcellulose) (HPC) 95 % of control

O=C(Nc1cc(C(F)(F)F)ccc1Cl)N(Cc1ccccc1)c1ccccc1
inactive: dose: 100.0 mg/kg/injection, schedule: Q04DX002 (ip), vehicle: Klucel (hydroxypropylcellulose) (HPC) 93 % of control and 108 % of control | dose: 200.0 mg/kg/injection, schedule: Q04DX002 (ip), vehicle: Klucel (hydroxypropylcellulose) (HPC) 98 % of control and 118 % of control | dose: 400.0 mg/kg/injection, schedule: Q04DX002 (ip), vehicle: Klucel (hydroxypropylcellulose) (HPC) 98 % of control | dose: 800.0 mg/kg/injection, schedule: Q04DX002 (ip), vehicle: Klucel (hydroxypropylcellulose) (HPC) 94 % of control

COc1c2c(c(OC)c3ccccc13)C(=O)c1ccccc1C2=O
inactive: dose: 50.0 mg/kg/injection, schedule: Q01DX005 (ip), vehicle: saline 94 % of control | dose: 100.0 mg/kg/injection, schedule: Q01DX005 (ip), vehicle: saline 91 % of control | dose: 200.0 mg/kg/injection, schedule: Q01DX005 (ip), vehicle: saline 91 % of control

C1CCCCCC(NC2=NCCO2)CCCCC1
inactive: dose: 25.0 mg/kg/injection, schedule: Q04DX003 (ip), vehicle: saline with Tween-80 97 % of control | dose: 50.0 mg/kg/injection, schedule: Q04DX003 (ip), vehicle: saline with Tween-80 102 % of control | dose: 100.0 mg/kg/injection, schedule: Q04DX003 (ip), vehicle: saline with Tween-80 88 % of control

Reference: PubChem BioAssay AID248 (DTP/NCI, 2004)
